Values after ≈ are worked out from the molar mass of the structure shown. Structures can show the parent of a compound that is named as a salt.
Test system: KB human oral epidermoid carcinoma
Assay: Antitumor activity in vitro (MTT method, 72 h), KB
Type: cell-based
Conditions: 37° C., read-out: IC50 (concentration necessary for inhibiting proliferation of the cells to 50%)
Procedure: Antitumor activity was determined in vitro using a human cancer strain. As the culture medium for the cancer cell, an RPMI1640 solution containing 10% of […] bovine fetal serum 50 μg/ml of kanamycin was used. Cancer cells (1×10^4 cells/ml) were innoculated to 1 ml of the culture liquids containing samples at different concentrations, respectively, and cultured in a carbon dioxide gas incubator at 37° C. for 72 hours.
Viability of the cancer cells was determined by MTT method in which the amount of living cells in the culture liquids containing the sample and that in culture liquids containing no sample (blank group) are measured based on the intensity of the visible light using [3-(4,5-dimethylthiazol-2-yl)-2,5-diphenyl-tetrazolium bromide] which develops color in proportion to the number of living cells. The intensity of antitumor activity was expressed by IC50 value (concentration (μg/ml) necessary for inhibiting proliferation of the cells to 50%). The IC50 value was obtained from a graph illustrating the relationship between % proliferation of the cancer cells in the sample containing group (% relative to the blank group) and the concentration (logalithmic) of the sample.
KB: human oral epidermoid carcinoma

| SMILES | IC50 [mg/L] |
| --- | --- |
| N#C[C@H]1[C@H](O)[C@@H](CO)O[C@H]1n1ccc(N)nc1=O [Example 9, 1-(2'-Cyano-2'-deoxy-β-D-arabinofuranosyl)cytosine monohydrochloride] | 15 |
| Cc1cn([C@@H]2O[C@H](CO)C=C2C#N)c(=O)[nH]c1=O [Example 12, 1-(2'-Cyano-2',3'-deoxy-2',3'-didehydro-β-D-ribofuranosyl)thymine] | 7.6 (≈ 30.5 µM) |
